Results taken from PubChem BioAssay (NCI).
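96-well plates; 48 h exposure; 5 concentrations. Endpoints by linear interpolation between flanking doses. Not reached: highest tested concentration assigned. GI50 marks 50% less growth. TGI marks complete inhibition of growth.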

Columns and labels:
Experiment in all cases: DTP human tumour cell line panel, 48 h
[1] = tested on: 786-0 renal
[2] = tested on: A498 renal
[3] = tested on: A549 NSCLC
[4] = tested on: ACHN renal
[5] = tested on: BT-549 breast
[6] = tested on: CAKI-1 renal
[7] = tested on: CCRF-CEM leukemia
[8] = tested on: COLO 205 colon
[9] = tested on: DU-145 prostate
[10] = tested on: EKVX NSCLC
[11] = tested on: HCC-2998 colon
[12] = tested on: HCT-116 colon
[13] = tested on: HCT-15 colon
[14] = tested on: HL-60(TB) leukemia
[15] = tested on: HOP-62 NSCLC
[16] = tested on: HOP-92 NSCLC
[17] = tested on: HS 578T breast
[18] = tested on: HT29 colon
[19] = tested on: IGROV1 ovarian
[20] = tested on: K-562 leukemia
[21] = tested on: KM12 colon
[22] = tested on: LOX IMVI melanoma
[23] = tested on: M14 melanoma
[24] = tested on: MALME-3M melanoma
[25] = tested on: MCF7 breast
[26] = tested on: MDA-MB-231 breast
[27] = tested on: MDA-MB-435
[28] = tested on: MOLT-4 leukemia
[29] = tested on: NCI-H226 lung
[30] = tested on: NCI-H23 lung
[31] = tested on: NCI-H460 lung
[32] = tested on: NCI-H522 lung
[33] = tested on: NCI/ADR-RES ovarian
[34] = tested on: OVCAR-3 ovarian
[35] = tested on: OVCAR-4 ovarian
[36] = tested on: OVCAR-5 ovarian
[37] = tested on: OVCAR-8 ovarian
[38] = tested on: PC-3 prostate
[39] = tested on: RPMI-8226 leukemia
[40] = tested on: RXF 393 renal
[41] = tested on: SF-268 CNS
[42] = tested on: SF-295 CNS
[43] = tested on: SF-539 CNS
[44] = tested on: SK-MEL-2 melanoma
[45] = tested on: SK-MEL-28 melanoma
[46] = tested on: SK-MEL-5 melanoma
[47] = tested on: SK-OV-3 ovarian
[48] = tested on: SN12C renal
[49] = tested on: SNB-19 CNS
[50] = tested on: SNB-75 CNS
[51] = tested on: SR leukemia
[52] = tested on: SW-620 colon
[53] = tested on: T-47D breast
[54] = tested on: TK-10 renal
[55] = tested on: U251 CNS
[56] = tested on: UACC-257 melanoma
[57] = tested on: UACC-62 melanoma
[58] = tested on: UO-31 renal

Fc1cccc(COc2ccc(Nc3ncnc4sc(-c5cccs5)cc34)cc2Cl)c1
GI50 [1]: 8.34 µM | TGI [1]: > 18.7 µM | GI50 [2]: 6.88 µM | TGI [2]: > 21.7 µM | GI50 [3]: 9.32 µM | TGI [3]: > 25 µM | GI50 [4]: 3.24 µM | TGI [4]: 7.24 µM | GI50 [5]: 6.25 µM | TGI [5]: 15.6 µM | GI50 [6]: > 9.71 µM | TGI [6]: > 25 µM | GI50 [7]: > 25 µM | TGI [7]: > 25 µM | GI50 [8]: 1.42 µM | TGI [8]: 10.5 µM | GI50 [9]: 11.1 µM | TGI [9]: > 17.7 µM | GI50 [10]: 4.74 µM | TGI [10]: > 20.4 µM | GI50 [11]: 5.25 µM | TGI [11]: > 18.4 µM | GI50 [12]: 7.59 µM | TGI [12]: > 23.8 µM | GI50 [13]: 9.11 µM | TGI [13]: > 25 µM | GI50 [14]: > 25 µM | TGI [14]: > 25 µM | GI50 [15]: 4.88 µM | TGI [15]: 9.86 µM | GI50 [16]: 3.3 µM | TGI [16]: 10.2 µM | GI50 [17]: > 8.44 µM | TGI [17]: > 14.9 µM | GI50 [18]: 6.93 µM | TGI [18]: 17.9 µM | GI50 [19]: 8.73 µM | TGI [19]: > 25 µM | GI50 [20]: > 25 µM | TGI [20]: > 25 µM | GI50 [21]: 4.07 µM | TGI [21]: > 25 µM | GI50 [22]: > 14.6 µM | TGI [22]: > 25 µM | GI50 [23]: 7.66 µM | TGI [23]: > 25 µM | GI50 [24]: 3.52 µM | TGI [24]: 10.1 µM | GI50 [25]: 0.75 µM | TGI [25]: 8.42 µM | GI50 [26]: 5.73 µM | TGI [26]: 16.4 µM | GI50 [27]: 3.61 µM | TGI [27]: > 19.1 µM | GI50 [28]: > 25 µM | TGI [28]: > 25 µM | GI50 [29]: 4.58 µM | TGI [29]: 15.2 µM | GI50 [30]: > 13.6 µM | TGI [30]: > 25 µM | GI50 [31]: 7.63 µM | TGI [31]: > 17 µM | GI50 [32]: 7.55 µM | TGI [32]: > 22.4 µM | GI50 [33]: 4.74 µM | TGI [33]: > 17.3 µM | GI50 [34]: 0.77 µM | TGI [34]: 6.24 µM | GI50 [35]: 2.06 µM | TGI [35]: 8.66 µM | GI50 [36]: 6.89 µM | TGI [36]: > 25 µM | GI50 [37]: 5.5 µM | TGI [37]: > 17.4 µM | GI50 [38]: > 10.7 µM | TGI [38]: > 20.4 µM | GI50 [39]: > 25 µM | TGI [39]: > 25 µM | GI50 [40]: 4.37 µM | TGI [40]: 12 µM | GI50 [41]: 11.4 µM | TGI [41]: > 22.8 µM | GI50 [42]: 9.81 µM | TGI [42]: > 25 µM | GI50 [43]: 5.55 µM | TGI [43]: 15.3 µM | GI50 [44]: 2.46 µM | TGI [44]: 8.83 µM | GI50 [45]: 6.58 µM | TGI [45]: > 22.8 µM | GI50 [46]: 2.93 µM | TGI [46]: 12 µM | GI50 [47]: 3.47 µM | TGI [47]: 9.69 µM | GI50 [48]: 9.2 µM | TGI [48]: > 25 µM | GI50 [49]: 5.33 µM | TGI [49]: 12 µM | GI50 [50]: 4.17 µM | TGI [50]: 10 µM | GI50 [51]: > 16.4 µM | TGI [51]: > 25 µM | GI50 [52]: > 13.3 µM | TGI [52]: > 25 µM | GI50 [53]: 2.71 µM | TGI [53]: 9.04 µM | GI50 [54]: 4.76 µM | TGI [54]: 10.8 µM | GI50 [55]: 5.75 µM | TGI [55]: 15.9 µM | GI50 [56]: 1.42 µM | TGI [56]: > 14 µM | GI50 [57]: 1.59 µM | TGI [57]: 5.71 µM | GI50 [58]: 5.78 µM | TGI [58]: > 24.1 µM
